Measurements: patent US20260272895A1, “METHODS AND KITS FOR DELIVERY OF COMPOUNDS INTO CELLS” (Yale University, priority 2023, published 2026)
Entries after “also recorded” stand apart in the source; their conditions may differ.

Columns and labels:
[1] = test system: brain endothelium / blood brain barrier; assay: In vivo two-photon imaging of mouse brain cortex after intravenous administration
Description: Briefly, animals are anaesthetized via intraperitoneal injections of ketamine/xylazine or via inhaled isoflurane. A region of the skull (3×3 mm) is gently removed with a high-speed drill and the underlying dura is removed. A small glass coverslip is placed over the skull to allow long term optical access for in vivo imaging. Labeling with fluorescent dyes is performed either via intravenous injections or topically application to the cortical surface for 20 min prior to glass cover placement. After recovery, in vivo images are acquired using a two-photon microscope (Bruker Technologies) equipped with a multimodal (fixed wavelength 1040 nm and tunable wavelength) InSight X3 two-photon laser (Spectra Physics) and 20× water immersion objective (Zeiss 1.0N.A.). The two-photon laser is appropriately tuned to excite particular fluorescent dyes and proteins as needed. In selected cases, following in vivo imaging, mice will be sacrificed and perfused for follow up immunohistochemistry and high-resolution confocal imaging (Leica SP8) to further confirm colocalization of dyes and cells expressing particular transporters.
One-month-old wild-type mice were anesthetized using a ketamine/xylazine solution at doses of 100 mg/kg and 10 mg/kg, respectively. The fur around the skull area was shaved, and buprenex (0.1 mg per kg) and carprofen (5 mg per kg) were administered subcutaneously. Mice were kept on a heating pad at 37° C., and anesthesia was periodically monitored. The skin was treated with povidone-iodine solution, followed by cleaning with ethanol, and eye ointment was applied. A small skin section was excised to expose the skull. Thinning of the skull was performed in a circular area, followed by delicately lifting of the remaining skull without harm to the underlying brain. Within the circular region, the dura was gently removed using fine forceps, and a 4 mm cover glass was softly pressed onto the brain surface and affixed to the skull. Fluorescent dyes were applied either through intravenous injections or topically to the cortical surface for 20 minutes before placing the glass cover. A customized head bar was attached either by adhesive (for acute imaging) or permanently implanted (using dental cement, for chronic imaging) onto the skull. Mice were imaged under a two-photon microscope (Prairie Technologies) with a mode-locked MaiTai tunable laser (Spectra Physics). Imaging was performed with a 20× water immersion objective (Zeiss, 1.0NA). Images were captured at depths up to 300 μm from the pial surface using excitation wavelengths ranging from 750 to 950 nm as previously described. Mice undergoing chronic imaging received a recovery period on a heating pad post-surgery, and buprenex (0.1 mg per kg) and carprofen (5 mg per kg) were administered for 3 days. […]

[2] = test system: cancer cells in freshly excised breast surgical tissue; assay: Injection into freshly excised cancerous breast tissue
Source text: Injection of compound 1 into freshly excised cancerous breast tissue leads to rapid entry into cancer cells (red). Blue represents nuclear labeling with Hoechst dye.

[3] = test system: retinal endothelial cells; assay: Retinal endothelial labeling after intravitreal / intraocular injection; assay type: in vivo, mouse; conditions: intravitreal/intraocular injection (eEDiTS 50 μM in FIG. 14D)
SLC2A3 = assay: Compound uptake in HEK293 expressing solute carrier family 2 member 3; assay type: cell-based
Description: HEK293 cells are cultured and seeded at ~60% confluency in 24-well plates and are transiently transfected with 250 ng of a candidate transporter and 1 μL transfection reagent (JetPRIME). After 2 days, cells are washed and novel fluorescent probes at different concentrations are added to the transport medium and incubated at 37° C., for at least 30 minutes. To terminate the transport, cells are washed with PBS and fixed with 4% paraformaldehyde. The colocalization of probe uptake and cells expressing the transporters is investigated by immunostaining the transporter which has a fused FLAG tag, using anti-FLAG 488. Before confocal imaging, nuclei are labeled with Hoechst 33342 and cells are mounted and imaged on a Leica SP8 confocal microscope.
For in vitro experiments, HEK293 cells were cultured and seeded in 24-well plates, reaching approximately 60% confluency. For transient transfection, 250 ng of a candidate transporter plasmid and 1 μL of transfection reagent (JetPRIME) were added to the cells. After a 2-day incubation period, the cells were washed, and novel fluorescent probes were introduced into the transport medium at various concentrations. The cells were then incubated at 37° C., for a minimum of 30 minutes to allow for uptake. To stop the transport process, the cells were washed with PBS and fixed using 4% paraformaldehyde. […]

brain cell types = assay: In vivo two-photon imaging of mouse cortex after topical cortical administration of fluorophores; conditions: topical cortical administration 50 μM, Tie2-GFP endothelial reporter mice
[4] = Assessment of in vivo compound toxicity (fur regrowth, body weight); set-up: species or system mouse; conditions: intradermal injection (fur regrowth) and daily intraperitoneal injection for 5 days (body weight)
Description: To evaluate systemic toxicity, mouse weight was monitored daily, focusing on P20 mice in their active growth stage. For local toxicity assessment, the mouse fur was shaved to stimulate follicular stem cell division and subsequent hair regrowth. Compounds were injected intradermally on the right lower back quadrant and the left quadrant was used as a control. Hair regrowth was monitored for 12 days with serial photography followed by quantification using NIH Image J Plot Profile Plug-In, yielding pixel intensity profiles. Changes in pixel intensity where compared between injected (right quadrant) versus noninjected (left quadrant) by using the following formula:
(Noninjected intensity−Injected intensity)/Noninjected intensity×100%. (Eq. 1)

NIH3T3 cells = assay: Assessment of pharmacological effects in vitro in NIH3T3 cells (tubulin staining, multinucleated cells); assay type: cell-based
Source text: Confocal microscopy of the different treatment groups allowed us to visualize Hoechst dye-labeled nuclei to quantify the proportion of cells with multinucleated phenotype which is known to occur with Colchicine treatments.

SMILES | entry into non-endothelial cells ([1]; 2 hours post intravenous injection) | brain endothelial labeling after intravenous administration ([1]; IV 50 microliters at 20 mg/ml, 10 min to 130 min post injection) | interstitial space fluorescence / blood brain barrier crossing ([1]; IV, 10 min vs 130 min or 2 hours post injection) | punctate labeling in the endothelium ([1]; lower concentration IV in 120 μL of PBS, around 2 hours post injection) | entry into breast cancer cells [2] | retinal endothelial labeling [3] | uptake on expression of SLC2A3 (SLC2A3) | colocalization with GFP labeling (brain cell types) | local and systemic toxicity [4] | preservation of pharmacological properties after conjugation (NIH3T3 cells; NIH3T3 cells) | cell morphology / multinucleated cells (NIH3T3 cells; NIH3T3 cells (FIG. 17A)) | pattern of α-tubulin immunofluorescence (NIH3T3 cells; NIH3T3 cells, 12 hours, varying concentrations (FIG. 17A))
O=S(=O)([O-])c1cc(S(=O)(=O)O)ccc1C1=c2cc3c4c(c2Oc2cc(Br)ccc21)CCC[N+]=4CCC3 [Compound 1, 2-(12-bromo-1,2,3,5,6,7-hexahydrochromeno[2,3-f]pyrido[3,2,1-ij]quinolin-4-ium-9-yl)-5-sulfobenzenesulfonate] | does not enter non-endothelial cells; also recorded: does not enter other cells except for endothelial cells | marked uptake of the compound into the capillary endothelial wall; also recorded: robust brain endothelial labeling | located in the brain interstitial space; also recorded: marked increase in the interstitial space fluorescence | bright punctate labeling becomes apparent in the endothelium | readily enters cancer cells | rapid and highly specific labeling of retinal vasculature | does not induce uptake | – | – | – | – | –
COc1cc2c(c(OC)c1OC)-c1ccc(OC)c(=O)cc1C(NS(=O)(=O)c1ccc(-c3c4ccc(N(C)C)cc4[o+]c4cc(N(C)C)ccc34)c(S(=O)(=O)[O-])c1)CC2 (stereo not drawn) [Compound 47, 2-(3,6-bis(dimethylamino)xanthylium-9-yl)-5-(N-(1,2,3,10-tetramethoxy-9-oxo-5,6,7,9-tetrahydrobenzo[a]heptalen-7-yl)sulfamoyl)benzenesulfonate] | – | – | – | – | – | – | – | precise colocalization between Colchicine-eEDiTS and GFP labeling | markedly reduced local and systemic toxicity | retains its pharmacological properties | changes in cell morphology and presence of multinucleated cells | diffuse labeling pattern
